Data reported in patent US11578080B2, “Thienopyrimidones” (Boehringer Ingelheim International GmbH, priority 2019, dated 2023).

Key:
human TRPA1 ion channel = human TRPA1 ion channel (Homo sapiens (Human), UniProt O75762); assay: Assay A: TRPA1 assay (FLIPR calcium, AITC agonism, HEK293 over-expressing human TRPA1); assay type: cell-based; conditions: HEK293 over-expressing human TRPA1, AITC 10 μM, FLIPRtetra; read-out: hTRPA1 IC50
Method: A human HEK293 cell line over-expressing the human TRPA1 ion channel (Perkin Elmer, Product No. AX-004-PCL) was used as a test system for compound efficacy and potency. Compound activity was determined by measuring the effect of compounds on intracellular calcium concentration induced by AITC (Allylisothiocyanat) agonism in a FLIPRtetra system (Molecular Devices).
The cells were obtained as frozen cells in cryo-vials and stored until use at −150° C. Cells were grown in culture medium (MEM/EBSS medium with 10% FCS and 0.4 mg/ML Geneticin). […] For sub-culturing cells were detached from flasks by Versene. At the day before the assay, cells were detached, washed twice with medium (MEM/EBSS medium with 10% FCS) and 20000 cells in 20 μl/well were seeded to Poly D-Lysin biocoated 384-well plates (black, clear bottom, Cat. 356697) from Corning. Plates were incubated for 24 hours at 37° C./5% CO2 before use in the assay.
The test compounds were dissolved in 100% DMSO at a concentration of 10 mM and in a first step diluted in DMSO to a concentration of 5 mM, followed by serial dilution steps in 100% DMSO. Dilution factor and number of dilution steps may vary according to needs. Typically 8 different concentrations by 1:5 dilutions were prepared, further intermediate dilutions (1:20) of the substances were carried out with HBSS/HEPES buffer (1×HEPES, Cat. 14065 from Gibco, 20 mM HEPES, Cat. 83264 from SIGMA, 0.1% BSA Cat. 11926 from Invitrogen, pH 7,4
At the assay day cells were washed 3× with assay puffer, 20 μL buffer remained in the wells after washing. 10 μL Ca6 kit (Cat. R8191 MolecularDevices) loading buffer in HBSS/HEPES was added to the cells and the plates were incubated with lid for 120 minutes at […]. 10 μL of compound or controls in HBSS/HEPES buffer/5% DMSO from the intermediate dilution plate were carefully added to the wells. […] Finally 10 μL of the agonist AITC 50 μM dissolved in HBSS/HEPES buffer/0.05% DMSO (final concentration 10 μM) was added to the wells followed by an additional read on the FLIPRtetra device for 10 minutes. The area under the signal curve (AUC) after AITC addition was used for IC50/% inhibition calculations
Data Evaluation and Calculation:
Each assay microtiter plate contained wells with vehicle (1% DMSO) controls instead of compound as controls for AITC induced luminescence (100% CTL; high controls) and wells with vehicle controls without AITC as controls for non-specific changes in luminescence (0% CTL; low controls).
The analysis of the data was performed by the calculation of the area under signal curve of the individual wells. Based on this values the % value for the measurement of each substance concentration was calculated (AUC(sample)−AUC(low))*100/(AUC(high)−AUC(low)) using MegaLab software (in house development). The IC50 values were calculated from the % control values using MegaLab software. Calculation: [y=(a−d)/(1+(x/c)^b)+d], a=low value, d=high value; x=cone M; c=IC50 M; b=hill; y=% ctrl

[1] = Assay B: Microsomal clearance; assay type: in vitro ADME, human; conditions: pooled liver microsomes, 1 μM test compound, 37° C.
Method: Assay B: Microsomal Clearance:
The metabolic degradation of the test compound is assayed at 37° C. with pooled liver microsomes. The final incubation volume of 100 μl per time point contains TRIS buffer pH 7.6 at RT (0.1 M), magnesium chloride (5 mM), microsomal protein (1 mg/ml) and the test compound at a final concentration of 1 μM.
Following a short preincubation period at 37° C., the reactions are initiated by addition of beta-nicotinamide adenine dinucleotide phosphate, reduced form (NADPH, 1 mM) and terminated by transferring an aliquot into solvent after different time points (0, 5, 15, 30, 60 min). Additionally, the NADPH-independent degradation is monitored in incubations without NADPH, terminated at the last time point. The [%] remaining test compound after NADPH independent incubation is reflected by the parameter c(control) (metabolic stability). The quenched incubations are pelleted by centrifugation (10000 g, 5 min).
An aliquot of the supernatant is assayed by LC-MS/MS for the amount of parent compound. The half-life (t½ INVITRO) is determined by the slope of the semilogarithmic plot of the concentration-time profile.
The intrinsic clearance (CL_[…]) is calculated by considering the amount of protein in the incubation: CL_[…] [μl/min/mg protein]=(Ln 2/(half-life [min]*protein content [mg/ml]))*1000 CL_[…]_INVIVO [ml/min/kg]=(CL_[…] [μL/min/mg protein]×MPPGL [mg protein/g liver]×liver factor [g/kg body weight])/1000 Qh [%]=CL [ml/min/kg]/hepatic blood flow [ml/min/kg])
(§1) Hepatocellularity, human: 120×10e6 cells/g liver
(§2) Liver factor, human: 25.7 g/kg bodyweight
(§3) Blood flow, human: 21 ml/(min×kg)

[2] = Assay C: Hepatocyte clearance; assay type: in vitro ADME, human; conditions: hepatocyte suspension, 1 μM test compound
Method: Assay C: Hepatocyte Clearance
The metabolic degradation of the test compound is assayed in a hepatocyte suspension. Hepatocytes (cryopreserved) are incubated in. Dulbecco's modified eagle medium (supplemented with 3.5 μg glucagon/500 mL, 2.5 mg insulin/500 mL and 3.75 mg/500 mL hydrocortison) containing 5% or 50% species serum.
Following a 30 min preincubation in an incubator (37° C., 10% CO2) 5 μl of test compound solution (80 μM; from 2 mM in DMSO stock solution diluted 1:25 with medium) are added into 395 μl hepatocyte suspension (cell density in the range 0.25-5 Mio cells/mL depending on the species, typically 1 Mio cells/mL; final concentration of test compound 1 μM, final DMSO concentration 0.05%).
The cells are incubated for six hours (incubator, orbital shaker) and samples (25 μl) are taken at 0, 0.5, 1, 2, 4 and 6 hours. Samples are transferred into acetonitrile and pelleted by centrifugation (5 min). The supernatant is transferred to a new 96-deepwell plate, evaporated under nitrogen and resuspended.
Decline of parent compound is analyzed by HPLC-MS/MS
CLint is calculated as follows CL_[…]=Dose/AUC=(C0/CD)/(AUD+clast/k)×1000/60. CO: initial concentration in the incubation [μM], CD: cell density of vital cells [10e6 cells/mL], AUD: area under the data [μM×h], clast: concentration of last data point [μM], k: slope of the regression line for parent decline [h-1].
The calculated in vitro hepatic intrinsic clearance can be scaled up to the intrinsic in vivo hepatic Clearance and used to predict hepatic in vivo blood clearance (CL) by the use of a liver model (well stirred model). CL_[…]_INVIVO [ml/min/kg]=(CL_[…] [μL/min/10e6 cells]×hepatocellularity [10e6 cells/g liver]×liver factor [g/kg body weight])/1000 CL [ml/min/kg]=CL_[…]_INVIVO [ml/min/kg]×hepatic blood flow [ml/min/kg]/(CL_[…]_INVIVO [ml/min/kg]+hepatic blood flow [ml/min/kg]) Qh [%]=CL [ml/min/kg]/hepatic blood flow [ml/min/kg])
as §1, §2, §3

Sequence of human TRPA1 ion channel (O75762 whole entry): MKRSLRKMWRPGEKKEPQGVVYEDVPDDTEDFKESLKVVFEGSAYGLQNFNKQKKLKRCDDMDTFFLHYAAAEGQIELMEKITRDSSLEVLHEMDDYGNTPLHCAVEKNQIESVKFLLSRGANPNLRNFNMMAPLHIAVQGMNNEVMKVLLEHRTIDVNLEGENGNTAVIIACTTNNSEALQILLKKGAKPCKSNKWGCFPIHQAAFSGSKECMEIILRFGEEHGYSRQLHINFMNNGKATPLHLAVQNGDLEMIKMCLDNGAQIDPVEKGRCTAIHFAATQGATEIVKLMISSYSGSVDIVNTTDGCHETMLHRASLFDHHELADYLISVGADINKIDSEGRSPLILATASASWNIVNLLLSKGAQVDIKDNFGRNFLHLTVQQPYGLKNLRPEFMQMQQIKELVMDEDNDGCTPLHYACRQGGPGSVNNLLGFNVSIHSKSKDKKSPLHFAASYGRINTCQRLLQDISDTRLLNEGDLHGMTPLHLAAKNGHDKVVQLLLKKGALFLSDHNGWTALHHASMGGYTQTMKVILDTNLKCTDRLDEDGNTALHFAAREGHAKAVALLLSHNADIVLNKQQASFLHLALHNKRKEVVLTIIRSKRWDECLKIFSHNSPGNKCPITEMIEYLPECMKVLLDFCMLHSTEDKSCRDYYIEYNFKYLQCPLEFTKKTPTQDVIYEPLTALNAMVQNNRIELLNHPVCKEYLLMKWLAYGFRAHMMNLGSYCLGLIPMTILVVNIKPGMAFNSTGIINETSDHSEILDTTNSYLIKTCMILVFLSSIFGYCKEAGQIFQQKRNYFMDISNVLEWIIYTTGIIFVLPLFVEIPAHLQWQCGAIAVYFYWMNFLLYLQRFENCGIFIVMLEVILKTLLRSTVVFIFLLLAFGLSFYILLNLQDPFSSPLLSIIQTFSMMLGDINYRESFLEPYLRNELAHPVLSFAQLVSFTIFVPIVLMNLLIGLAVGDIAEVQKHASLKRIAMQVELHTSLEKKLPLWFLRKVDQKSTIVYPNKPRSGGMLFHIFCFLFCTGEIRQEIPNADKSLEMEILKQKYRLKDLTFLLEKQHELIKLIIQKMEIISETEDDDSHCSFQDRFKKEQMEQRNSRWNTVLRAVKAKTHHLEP

SMILES	IC50 (human TRPA1 ion channel) [nM]	human LM [% Qh] [1] [% Qh]	human Hepatocytes [% Qh] [2] [% Qh]
Cc1c(C(N)=O)sc2ncn(Cc3nnn(C[C@H](O)c4cc5ccc(Cl)cc5o4)n3)c(=O)c12 [Example 8]	15	43	36
Cc1c(C(N)=O)sc2ncn(Cc3nnn(C[C@H](O)c4ccc(Cl)s4)n3)c(=O)c12 [Example 4]	12	<23	7
Cc1c(C(N)=O)sc2ncn(Cc3nnn(C[C@H](O)c4ccc(Cl)cc4)n3)c(=O)c12 [Example 1, 3-({2-[(2R)-2-(4-chlorophenyl)-2-hydroxyethyl]-2H-1,2,3,4-tetrazol-5-yl}methyl)-5-methyl-4-oxo-3H,4H-thieno[2,3-d]pyrimidine-6-carboxamide]	11	<23	12
N#Cc1ccc([C@@H](O)Cn2nnc(Cn3cnc4sc5c(c4c3=O)CCNC5=O)n2)s1 [Example 21]	80	27	5
CNC(=O)c1sc2ncn(Cc3nnn(C[C@H](O)c4ccc(Cl)s4)n3)c(=O)c2c1C [Example 16]	37	<23	17
Cc1c(C(N)=O)sc2ncn(Cc3nnn(C[C@H](O)c4ccc(F)c(F)c4)n3)c(=O)c12 [Example 5]	74	<23	–
Cc1ccc([C@@H](O)Cn2nnc(Cn3cnc4sc5c(c4c3=O)CCNC5=O)n2)cc1 [Example 20]	14	<23	28
CNC(=O)c1sc2ncn(Cc3nnn(C[C@H](O)c4ccc5c(c4)OCO5)n3)c(=O)c2c1C [Example 14]	76	<23	13
O=C1NCCc2c1sc1ncn(Cc3nnn(C[C@H](O)c4ccc(Cl)s4)n3)c(=O)c21 [Example 17]	14	<23	22
Cc1c(C(N)=O)sc2ncn(Cc3nnn(C[C@H](O)c4cc5cc(F)ccc5o4)n3)c(=O)c12 [Example 11]	25	<23	28
CNC(=O)c1sc2ncn(Cc3nnn(C[C@H](O)c4ccc(C)cc4)n3)c(=O)c2c1C [Example 15]	38	<23	18
Cc1c(C(N)=O)sc2ncn(Cc3nnn(C[C@H](O)c4cc5ccc(F)cc5o4)n3)c(=O)c12 [Example 12]	17	<23	31
NC(=O)c1sc2ncn(Cc3nnn(C[C@H](O)c4ccc(Cl)cc4)n3)c(=O)c2c1Cl [Example 23]	6	<23	12
Cc1c(C(N)=O)sc2ncn(Cc3nnn(C[C@H](O)c4cc5ccccc5s4)n3)c(=O)c12 [Example 22]	7	35	44
O=C1NCCc2c1sc1ncn(Cc3nnn(C[C@H](O)c4cc5cc(Cl)ccc5o4)n3)c(=O)c21 [Example 18]	14	32	48
Cc1c(C(N)=O)sc2ncn(Cc3nnn(C[C@H](O)c4ccc(Br)cc4)n3)c(=O)c12 [Example 2]	12	<23	13
Cc1c(C(N)=O)sc2ncn(Cc3nnn(C[C@H](O)c4cc5cc(Cl)ccc5o4)n3)c(=O)c12 [Example 3]	12	<23	40
Cc1c(C(N)=O)sc2ncn(Cc3nnn(C[C@H](O)c4ccc5c(c4)OCO5)n3)c(=O)c12 [Example 10]	28	<23	14
CN1CCc2c(sc3ncn(Cc4nnn(C[C@H](O)c5ccc(Cl)cc5)n4)c(=O)c23)C1=O [Example 7]	16	36	26
O=C1NCCc2c1sc1ncn(Cc3nnn(C[C@H](O)c4cc5cc(F)ccc5o4)n3)c(=O)c21 [Example 19]	31	<23	26
CNC(=O)c1sc2ncn(Cc3nnn(C[C@H](O)c4ccc(Cl)cc4)n3)c(=O)c2c1C [Example 13]	20	<23	9
Cc1ccc([C@@H](O)Cn2nnc(Cn3cnc4sc(C(N)=O)c(C)c4c3=O)n2)cc1 [Example 9]	21	<23	16
